{"source": "patent US20230255868A1", "about": "“SANITIZING COMPOSITION” (Conopco, Inc., d/b/a UNILEVER, priority 2020, published 2023)", "tested_on": "Adenovirus", "assay": "ASTM E1052-20 microbicides against viruses in suspension", "format": "cell-based", "conditions": "60 Seconds, remaining virus titre, Control 4.75", "method": "Skin, as used herein, is meant to include skin on the arms (including underarms), face, feet, neck, chest, hands, legs, buttocks and scalp (including hair). Sanitizing as used herein means a bacteria log kill of at least 2 and a viral log inactivation of at least 2 (both achieved) in less than 3 minutes after topical application to a surface. Sanitizing precursor means a composition which is a concentrate and suitable to be diluted (or hydrated) with water to produce a sanitizing composition ready for use. Combination, as used herein means, total weight of cetrimonium chloride plus benzalkonium chloride. Skin benefit agent means an ingredient suitable to improve a skin characteristic. Surface as used herein includes skin or the surface of an inanimate object such as a table top, computer monitor, door knob, toilet seat, shopping cart handle or even a clothing garment. Surface is also meant to include the coat of an animal such as the fur on a dog and cat. As used herein, surface preferably means human skin, and especially, skin on the face and hands. The dimonium and trimonium compounds used herein are meant to include salts of the same, especially chlorides and bromides of the same. Cationic surfactant, as used herein, is meant to include polyquaternium materials, like for example, polyquaternium-6. In an embodiment of the invention, the sanitizing composition of the present invention is a home care composition like a laundry spray composition suitable to spray clothing and upholstery requiring sanitizing. The home care composition can also be a sanitizing kitchen or bathroom spray composition. […] The composition of the present invention may optionally comprise skin benefit agents added thereto such as emollients, vitamins and/or derivatives thereof, resorcinols, retinoic acid precursors, colorants, moisturizers or humectants, fragrances, sunscreens, a mixture thereof or the like. The skin benefit ingredients may be water or oil soluble. The sanitizing composition, therefore, is an aqueous based composition with a pH from 3.0 to 8.2, and the composition is water continuous. Viscosity, as used herein, is taken with a Brookfield RV spindle 6 at 20 rpm for 30 seconds at 25° C. unless noted otherwise. […] Antimicrobial benefits mean at least a log kill of 2 in under 3 minutes whereby antimicrobial assessment is measured via test method ASTM-E2783-11 (Reapproved 2016) which sets forth the procedure for measuring antimicrobial activity for water miscible compounds using a time kill procedure. Viral (or virus) inactivation is determined by assessing the impact of microbiocides against viruses as set forth in ASTM-1052-20. […]"}
{"smiles": "CCCCCCCCCCCCCCCC[n+]1ccccc1.[Cl-]", "note": "[CPC, cetylpyridinum chloride]", "values": [{"measurement": "ADENOVIRUS Inactivation, Log10 TCID 50/0.1 ml", "setting": "test substance at 0.05%", "result": 1.6, "unit": "Log10 TCID 50/0.1 ml"}, {"measurement": "ADENOVIRUS Inactivation, Log10 TCID 50/0.1 ml", "setting": "test substance at 0.1%", "result": 1.6, "unit": "Log10 TCID 50/0.1 ml"}]}
{"smiles": "CCCCCCCCCCCCCCCC[N+](C)(C)C.[Br-]", "note": "[CTAB, cetrimonium bromide]", "values": [{"measurement": "ADENOVIRUS Inactivation, Log10 TCID 50/0.1 ml", "setting": "test substance at 0.05%", "result": 2.5, "unit": "Log10 TCID 50/0.1 ml"}, {"measurement": "ADENOVIRUS Inactivation, Log10 TCID 50/0.1 ml", "setting": "test substance at 0.1%", "result": 1.75, "unit": "Log10 TCID 50/0.1 ml"}]}
